# Data as given in the OligoGym collection.
# Bases are written 5' to 3'; sugars and linkages follow in the same order, as letters with counts (s phosphorothioate, o phosphodiester; PS: all linkages phosphorothioate). C may stand for cytosine or 5-methylcytosine; the collection does not tell. l = locked nucleic acid (LNA); d = 2'-deoxy (DNA)
# Biological target: HIF1A
# Assay: HeLa, 100 nM transfected, 24 h, mean of 3
# Settings: ASO
row,Sequence,caspase activation (% of PBS control)
1,"GTTACTGCCTTCT (sugars ldldddddddldl, PS)",108
2,"GTTACTGCCTTCTTAC (sugars l2 d2 l1 d9 l2, PS)",138
3,"TGGCAAGCATCCTGTA (sugars l4 d8 l4, PS)",349
4,"GTTACTGCCTTCT (sugars lddlddddddldl, PS)",110
5,"GTTACTGCCTTCTTAC (sugars lldldddddddldldl, PS)",193
6,"CAAGCATCCTGTA (sugars l2 d9 l2, PS)",189
7,"TGGCAAGCATCCT (sugars l1 d1 l2 d6 l3, PS)",260
8,"TGGCAAGCATCCTGTA (sugars l5 d7 l1 d2 l1, PS)",386
9,"GCAAGCATCCTGT (sugars l2 d8 l3, PS)",401
10,"ACTGCCTTCTTAC (sugars l1 d2 l1 d8 l1, PS)",119
11,"CAAGCATCCTGTA (sugars l1 d2 l1 d7 l2, PS)",107
12,"GGCAAGCATCCTG (sugars l3 d9 l1, PS)",496
13,"GTTACTGCCTTCTTAC (sugars ldddldddddddlldl, PS)",245
14,"TTACTGCCTTCTT (sugars l1 d1 l1 d8 l2, PS)",146
15,"GTTACTGCCTTCT (sugars l1 d2 l1 d7 l2, PS)",136
16,"TGGCAAGCATCCT (sugars lldlddddddldl, PS)",369
17,"TGGCAAGCATCCTGTA (sugars ldddlddddddldddl, PS)",159
18,"TGGCAAGCATCCTGTA (sugars l1 d2 l2 d7 l4, PS)",435
19,"TACTGCCTTCTTA (sugars l3 d9 l1, PS)",286
20,"TGGCAAGCATCCT (sugars ldllddddddldl, PS)",377
21,"GTTACTGCCTTCTTAC (sugars lllldddddddldldl, PS)",281
22,"GTTACTGCCTTCT (sugars l3 d7 l1 d1 l1, PS)",161
23,"GTTACTGCCTTCTTAC (sugars l1 d11 l1 d2 l1, PS)",115
24,"TGGCAAGCATCCTGTA (sugars l1 d11 l2 d1 l1, PS)",231
25,"ACTGCCTTCTTAC (sugars l4 d6 l3, PS)",410
26,"TGGCAAGCATCCT (sugars l2 d1 l1 d6 l3, PS)",259

row,Sequence,caspase activation (% of PBS control)
1,"TGGCAAGCATCCTGTA (sugars l1 d1 l2 d10 l2, PS)",342
2,"TGGCAAGCATCCTGTA (sugars l4 d8 l1 d1 l2, PS)",385
3,"CAAGCATCCTGTA (sugars l1 d2 l1 d8 l1, PS)",101
4,"CAAGCATCCTGTA (sugars l3 d7 l3, PS)",437
5,"CAAGCATCCTGTA (sugars l4 d7 l2, PS)",212
6,"GCAAGCATCCTGT (sugars l1 d1 l1 d7 l3, PS)",239
7,"GTTACTGCCTTCTTAC (sugars l3 d8 l1 d2 l2, PS)",204
8,"TGGCAAGCATCCTGTA (sugars l4 d7 l2 d1 l2, PS)",572
9,"TGGCAAGCATCCTGTA (sugars ldldldddddddlldl, PS)",218
10,"TGGCAAGCATCCTGTA (sugars l1 d2 l2 d10 l1, PS)",367
11,"GTTACTGCCTTCTTAC (sugars ldldlddddddddlll, PS)",214
12,"GTTACTGCCTTCTTAC (sugars l1 d11 l4, PS)",125
13,"GTTACTGCCTTCT (sugars l1 d9 l1 d1 l1, PS)",104
14,"GGCAAGCATCCTG (sugars l3 d7 l1 d1 l1, PS)",632
15,"GTTACTGCCTTCTTAC (sugars l3 d8 l2 d1 l2, PS)",243
16,"GCAAGCATCCTGT (sugars l1 d1 l1 d8 l2, PS)",188
17,"TGGCAAGCATCCTGTA (sugars ldldddddddddlddl, PS)",172
18,"TGGCAAGCATCCTGTA (sugars l5 d6 l1 d3 l1, PS)",371
19,"TGGCAAGCATCCTGTA (sugars l1 d1 l3 d9 l2, PS)",463
20,"CAAGCATCCTGTA (sugars l1 d2 l1 d6 l3, PS)",97
21,"TGGCAAGCATCCTGTA (sugars l3 d8 l5, PS)",476
22,"TGGCAAGCATCCTGTA (sugars lllddddddddldldl, PS)",385
23,"TGGCAAGCATCCTGTA (sugars l2 d1 l1 d9 l3, PS)",520
24,"TGGCAAGCATCCTGTA (sugars l3 d10 l3, PS)",273
25,"GTTACTGCCTTCTTAC (sugars l1 d11 l2 d1 l1, PS)",137
